Measured values reported in ChEMBL document CHEMBL1127835, “Structure-activity relationships of N6-benzyladenosine-5'-uronamides as A3-selective adenosine agonists” (J Med Chem, 1994).

Tested on: not listed separately
Test: Ratio of binding affinities for A2 receptor compared to that of A3 receptor
Details: not given
For `O=C(NC1CC1)[C@H]1OC(n2cnc3c(NCc4ccccc4)ncnc32)[C@H](O)[C@@H]1O` (stereo partly specified), the Ratio was 0.53.
For `CCNC(=O)[C@H]1O[C@@H](n2cnc3c(N)[n+](Cc4ccc([N+](=O)[O-])cc4)cnc32)[C@H]([O-])[C@@H]1O`, the Ratio was 3.2.
`CNC(=O)[C@H]1OC(n2cnc3c(NCc4cccc(N)c4)ncnc32)[C@H](O)[C@@H]1O` (stereo partly specified) gave a Ratio of 28.
Molecule `CNC(=O)[C@H]1OC(n2cnc3c(NCc4cccc(S(=O)(=O)O)c4)ncnc32)[C@H](O)[C@@H]1O` (stereo partly specified) has a Ratio of 6.9.
In the case of `CCNC(=O)[C@H]1O[C@@H](n2cnc3c(N[C@H](C)c4ccccc4)ncnc32)[C@H](O)[C@@H]1O`, the Ratio is reported as 14.
Molecule `CCNC(=O)[C@H]1O[C@@H](n2cnc3c(NCc4cccc(C)c4)ncnc32)[C@H](O)[C@@H]1O` has a Ratio of 15.
Molecule `CNC(=O)[C@H]1OC(n2cnc3c(NCc4cccc(NC(C)=O)c4)ncnc32)[C@H](O)[C@@H]1O` (stereo partly specified) has a Ratio of 24.
Work on `CCNC(=O)[C@H]1O[C@@H](n2cnc3c(NCc4cccc([N+](=O)[O-])c4)ncnc32)[C@H](O)[C@@H]1O` yielded a Ratio of 4.
In the case of `CCNC(=O)[C@H]1O[C@@H](n2cnc3c(NCc4cccc(OC)c4)ncnc32)[C@H](O)[C@@H]1O`, the Ratio is reported as 8.8.
Molecule `CNC(=O)[C@H]1OC(n2cnc3c(NCc4cccc(C(F)(F)F)c4)ncnc32)[C@H](O)[C@@H]1O` (stereo partly specified) has a Ratio of 19.
With `NCCNC(=O)[C@H]1O[C@@H](n2cnc3c(N)ncnc32)[C@H](O)[C@@H]1O` the Ratio was greater than 1.
With `CNC(=O)[C@H]1OC(n2cnc3c(NCc4ccc(Cl)cc4)ncnc32)[C@H](O)[C@@H]1O` (stereo partly specified) the Ratio was 160.
Molecule `NC(=O)[C@H]1OC(n2cnc3c(N)ncnc32)[C@H](O)[C@@H]1O` (stereo partly specified) has a Ratio of 0.085.
For `CNC(=O)[C@H]1O[C@@H](n2cnc3c(NCc4cccc(Br)c4)ncnc32)[C@H](O)[C@@H]1O`, the Ratio was 34.
`CCNC(=O)[C@H]1O[C@@H](n2cnc3c(NCc4ccc(OC)cc4)ncnc32)[C@H](O)[C@@H]1O` gave a Ratio of 55.
For `CNC(=O)[C@H]1OC(n2cnc3c(NCc4ccc(Br)cc4)ncnc32)[C@H](O)[C@@H]1O` (stereo partly specified), the Ratio was 200.
`CCNC(=O)[C@H]1O[C@@H](n2cnc3c(N)[n+](Cc4ccccc4[N+](=O)[O-])cnc32)[C@H](O)[C@@H]1[O-]` showed a Ratio of 3.1.

Biological target: T1, Adenosine receptor A3 (Rattus norvegicus, UniProt P28647)
T1 sequence (P28647 whole entry): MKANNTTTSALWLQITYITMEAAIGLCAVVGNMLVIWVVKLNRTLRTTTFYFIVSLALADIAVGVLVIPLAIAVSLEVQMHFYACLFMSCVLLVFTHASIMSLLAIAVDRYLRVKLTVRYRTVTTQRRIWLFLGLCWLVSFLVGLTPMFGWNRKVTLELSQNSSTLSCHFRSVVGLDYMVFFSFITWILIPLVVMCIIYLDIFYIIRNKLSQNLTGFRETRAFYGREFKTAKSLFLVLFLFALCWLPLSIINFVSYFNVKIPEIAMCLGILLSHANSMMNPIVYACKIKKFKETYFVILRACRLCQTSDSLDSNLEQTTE
Test: not given
Details: not given
In the case of `O=C(NC1CC1)[C@H]1OC(n2cnc3c(NCc4ccccc4)ncnc32)[C@H](O)[C@@H]1O` (stereo partly specified), the Ki is reported as 103 nM.
In the case of `CCNC(=O)[C@H]1O[C@@H](n2cnc3c(N)[n+](Cc4ccc([N+](=O)[O-])cc4)cnc32)[C@H]([O-])[C@@H]1O`, the Ki is reported as 60 nM.
In the case of `CCNC(=O)[C@H]1OC(n2cnc3c(=O)[nH]cnc32)[C@H](O)[C@@H]1O` (stereo partly specified), the Ki is reported as 5000 nM.
In the case of `NC(=O)[C@H]1OC(n2cnc3c(N)ncnc32)[C@H](O)[C@@H]1O` (stereo partly specified), the Ki is reported as 1410 nM.
`CCNC(=O)[C@H]1O[C@@H](n2cnc3c(N)[n+](Cc4ccccc4[N+](=O)[O-])cnc32)[C@H](O)[C@@H]1[O-]` showed a Ki of 27 nM.

Biological target: Adenosine A2 receptor (Rattus norvegicus, UniProt P29276+P30543)
Test: not given
Details: not given
`CNC(=O)[C@H]1O[C@@H](n2cnc3c(NCc4ccc(N)c(I)c4)ncnc32)[C@H](O)[C@@H]1O` showed a Ki of 197 nM.
Work on `O=C(NC1CC1)[C@H]1OC(n2cnc3c(NCc4ccccc4)ncnc32)[C@H](O)[C@@H]1O` (stereo partly specified) yielded a Ki of 55 nM.
For `CCNC(=O)[C@H]1O[C@@H](n2cnc3c(N)[n+](Cc4ccc([N+](=O)[O-])cc4)cnc32)[C@H]([O-])[C@@H]1O`, the Ki was 190 nM.
For `CNC(=O)[C@H]1OC(n2cnc3c(NCc4cccc(N)c4)ncnc32)[C@H](O)[C@@H]1O` (stereo partly specified), the Ki was 794 nM.
`CNC(=O)[C@H]1OC(n2cnc3c(NCc4cccc(S(=O)(=O)O)c4)ncnc32)[C@H](O)[C@@H]1O` (stereo partly specified) gave a Ki of 9070 nM.
For `CCNC(=O)[C@H]1O[C@@H](n2cnc3c(N[C@H](C)c4ccccc4)ncnc32)[C@H](O)[C@@H]1O`, the Ki was 259 nM.
In the case of `CCNC(=O)[C@H]1O[C@@H](n2cnc3c(NCc4cccc(C)c4)ncnc32)[C@H](O)[C@@H]1O`, the Ki is reported as 17.7 nM.
`CNC(=O)[C@H]1OC(n2cnc3c(NCc4cccc(NC(C)=O)c4)ncnc32)[C@H](O)[C@@H]1O` (stereo partly specified) showed a Ki of 988 nM.
For `CCNC(=O)[C@H]1O[C@@H](n2cnc3c(NCc4cccc([N+](=O)[O-])c4)ncnc32)[C@H](O)[C@@H]1O`, the Ki was 35 nM.
`CCNC(=O)[C@H]1O[C@@H](n2cnc3c(NCc4cccc(OC)c4)ncnc32)[C@H](O)[C@@H]1O` showed a Ki of 38 nM.
In the case of `CNC(=O)[C@H]1OC(n2cnc3c(NCc4cccc(C(F)(F)F)c4)ncnc32)[C@H](O)[C@@H]1O` (stereo partly specified), the Ki is reported as 574 nM.
Molecule `CNC(=O)[C@H]1OC(n2cnc3c(NCc4ccc(Cl)cc4)ncnc32)[C@H](O)[C@@H]1O` (stereo partly specified) has a Ki of 2730 nM.
Molecule `NC(=O)[C@H]1OC(n2cnc3c(N)ncnc32)[C@H](O)[C@@H]1O` (stereo partly specified) has a Ki of 120 nM.
`CNC(=O)[C@H]1O[C@@H](n2cnc3c(NCc4cccc(Br)c4)ncnc32)[C@H](O)[C@@H]1O` gave a Ki of 64 nM.
`CCNC(=O)[C@H]1O[C@@H](n2cnc3c(NCc4ccc(OC)cc4)ncnc32)[C@H](O)[C@@H]1O` showed a Ki of 609 nM.
For `CNC(=O)[C@H]1OC(n2cnc3c(NCc4ccc(Br)cc4)ncnc32)[C@H](O)[C@@H]1O` (stereo partly specified), the Ki was 2460 nM.
Work on `CCNC(=O)[C@H]1O[C@@H](n2cnc3c(N)[n+](Cc4ccccc4[N+](=O)[O-])cnc32)[C@H](O)[C@@H]1[O-]` yielded a Ki of 83.5 nM.

Biological target: T2, Adenosine receptor A1 (Rattus norvegicus) (UniProt P25099)
T2 sequence (whole entry): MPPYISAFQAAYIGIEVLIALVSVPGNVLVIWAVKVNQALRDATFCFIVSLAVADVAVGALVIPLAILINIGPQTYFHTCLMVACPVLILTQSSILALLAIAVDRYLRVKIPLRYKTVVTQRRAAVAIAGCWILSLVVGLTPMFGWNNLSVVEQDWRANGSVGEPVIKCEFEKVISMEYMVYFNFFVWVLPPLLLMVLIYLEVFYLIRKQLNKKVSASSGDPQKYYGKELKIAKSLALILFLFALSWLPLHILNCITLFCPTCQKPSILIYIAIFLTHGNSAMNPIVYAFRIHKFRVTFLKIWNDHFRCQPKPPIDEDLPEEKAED
Test: not given
Details: Brain, 10e-5 nM
`NCCNC(=O)[C@H]1O[C@@H](n2cnc3c(N)ncnc32)[C@H](O)[C@@H]1O` gave an inhibition of 0%.

Biological target: Adenosine A2 receptor (Rattus norvegicus) (UniProt P29276+P30543)
Test: not given
Details: Brain, 10e-5 nM
In the case of `NCCNC(=O)[C@H]1O[C@@H](n2cnc3c(N)ncnc32)[C@H](O)[C@@H]1O`, the inhibition is reported as 12.5%.

Biological target: T3, Adenosine receptor A1 (Rattus norvegicus, UniProt P25099)
T3 sequence (P25099 whole entry): T2 sequence (whole entry)
Test: biochemical
Details: not given
Molecule `CNC(=O)[C@H]1O[C@@H](n2cnc3c(NCc4ccc(N)c(I)c4)ncnc32)[C@H](O)[C@@H]1O` has a Ki of 18 nM.
Work on `O=C(NC1CC1)[C@H]1OC(n2cnc3c(NCc4ccccc4)ncnc32)[C@H](O)[C@@H]1O` (stereo partly specified) yielded a Ki of 112 nM.
Work on `CCNC(=O)[C@H]1OC(n2cnc3c(NCc4cccc(Br)c4)ncnc32)[C@H](O)[C@@H]1O` (stereo partly specified) yielded a Ki of 10.9 nM.
In the case of `CCNC(=O)[C@H]1O[C@@H](n2cnc3c(N)[n+](Cc4ccc([N+](=O)[O-])cc4)cnc32)[C@H]([O-])[C@@H]1O`, the Ki is reported as 341 nM.
Work on `CNC(=O)[C@H]1OC(n2cnc3c(NCc4cccc(N)c4)ncnc32)[C@H](O)[C@@H]1O` (stereo partly specified) yielded a Ki of 1000 nM.
In the case of `CNC(=O)[C@H]1OC(n2cnc3c(NCc4cccc(S(=O)(=O)O)c4)ncnc32)[C@H](O)[C@@H]1O` (stereo partly specified), the Ki is reported as 19600 nM.
`CNC(=O)[C@H]1OC(n2cnc3c(NCc4cccc(NC(C)=O)c4)ncnc32)[C@H](O)[C@@H]1O` (stereo partly specified) showed a Ki of 2970 nM.
In the case of `CNC(=O)[C@H]1OC(n2cnc3c(NCc4cccc(C(F)(F)F)c4)ncnc32)[C@H](O)[C@@H]1O` (stereo partly specified), the Ki is reported as 496 nM.
Work on `CNC(=O)[C@H]1OC(n2cnc3c(NCc4ccc(Cl)cc4)ncnc32)[C@H](O)[C@@H]1O` (stereo partly specified) yielded a Ki of 478 nM.
With `NC(=O)[C@H]1OC(n2cnc3c(N)ncnc32)[C@H](O)[C@@H]1O` (stereo partly specified) the Ki was 72.6 nM.
In the case of `CNC(=O)[C@H]1OC(n2cnc3c(NCc4ccc(Br)cc4)ncnc32)[C@H](O)[C@@H]1O` (stereo partly specified), the Ki is reported as 516 nM.
With `CCNC(=O)[C@H]1O[C@@H](n2cnc3c(N)[n+](Cc4ccccc4[N+](=O)[O-])cnc32)[C@H](O)[C@@H]1[O-]` the Ki was 196 nM.

Biological target: T1, Adenosine receptor A3
Test: biochemical
Details: not given
For `CCNC(=O)[C@H]1OC(n2cnc3c(NCc4cccc(Br)c4)ncnc32)[C@H](O)[C@@H]1O` (stereo partly specified), the Ki was 2.8 nM.
For `CNC(=O)[C@H]1OC(n2cnc3c(NCc4cccc(N)c4)ncnc32)[C@H](O)[C@@H]1O` (stereo partly specified), the Ki was 28 nM.
Molecule `CNC(=O)[C@H]1OC(n2cnc3c(NCc4cccc(S(=O)(=O)O)c4)ncnc32)[C@H](O)[C@@H]1O` (stereo partly specified) has a Ki of 1310 nM.
For `CNC(=O)[C@H]1OC(n2cnc3c(NCc4cccc(NC(C)=O)c4)ncnc32)[C@H](O)[C@@H]1O` (stereo partly specified), the Ki was 41.4 nM.
Molecule `CNC(=O)[C@H]1OC(n2cnc3c(NCc4cccc(C(F)(F)F)c4)ncnc32)[C@H](O)[C@@H]1O` (stereo partly specified) has a Ki of 31 nM.
In the case of `CNC(=O)[C@H]1OC(n2cnc3c(NCc4ccc(Cl)cc4)ncnc32)[C@H](O)[C@@H]1O` (stereo partly specified), the Ki is reported as 17 nM.
For `CNC(=O)[C@H]1O[C@@H](n2cnc3c(NCc4cccc(Br)c4)ncnc32)[C@H](O)[C@@H]1O`, the Ki was 1.9 nM.
Molecule `CNC(=O)[C@H]1OC(n2cnc3c(NCc4ccc(Br)cc4)ncnc32)[C@H](O)[C@@H]1O` (stereo partly specified) has a Ki of 12 nM.
